This note sets out measurements from PubChem BioAssay AID328 (DTP/NCI, 2004).

Inconclusive results and toxic doses are left out.

The test concerns BDF1 mice, P388 leukemia ip, median survival T/C. The test can be described thus: NCI In Vivo Anticancer Drug Screen. Data for tumor model P388 Leukemia (intraperitoneal) in B6D2F1 (BDF1) mice. The note with it: endpoint: median survival time, higher = longer survival. The method in brief: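 Antitumour effect was judged in vivo: survival in drug-treated mice, normalised to that of vehicle-dosed controls, gives the reported T/C.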

The mark [1] stands for this setting: dose: 6.25 mg/kg/injection, schedule: Q04DX003 (ip), vehicle: saline.
[2] abbreviates: dose: 12.5 mg/kg/injection, schedule: Q04DX003 (ip), vehicle: saline.
Setting [3] is: dose: 25.0 mg/kg/injection, schedule: Q04DX003 (ip), vehicle: saline.
Setting [4] is: dose: 12.5 mg/kg/injection, schedule: Q01DX009 (ip), vehicle: saline.
Where [5] appears, read: dose: 50.0 mg/kg/injection, schedule: Q01DX009 (ip), vehicle: saline with Tween-80.
The mark [6] stands for this setting: dose: 100.0 mg/kg/injection, schedule: Q01DX009 (ip), vehicle: saline with Tween-80.
Setting [7] is: dose: 200.0 mg/kg/injection, schedule: Q01DX009 (ip), vehicle: saline with Tween-80.
The mark [8] stands for this setting: dose: 100.0 mg/kg/injection, schedule: Q04DX003 (ip), vehicle: saline.
Setting [9] is: dose: 100.0 mg/kg/injection, schedule: Q04DX003 (ip), vehicle: saline with Tween-80.
Setting [10] is: dose: 200.0 mg/kg/injection, schedule: Q04DX003 (ip), vehicle: saline with Tween-80.
[11] abbreviates: dose: 400.0 mg/kg/injection, schedule: Q04DX003 (ip), vehicle: saline with Tween-80.
Setting [12] is: dose: 50.0 mg/kg/injection, schedule: Q04DX003 (ip), vehicle: saline.
Where [13] appears, read: dose: 400.0 mg/kg/injection, schedule: Q01DX009 (ip), vehicle: saline with Tween-80.
[14] abbreviates: dose: 25.0 mg/kg/injection, schedule: Q01DX009 (ip), vehicle: saline with Tween-80.

For `CCCCCC(C[N+](C)(C)C)C(=O)/C=C/c1ccc(Cl)cc1` (configuration not stated), the T/C by setting is: (dose: 6.25 mg/kg/injection, schedule: Q01DX001 (ip), vehicle: Klucel (hydroxypropylcellulose) (HPC)) 113 % of control; (dose: 12.5 mg/kg/injection, schedule: Q01DX001 (ip), vehicle: Klucel (hydroxypropylcellulose) (HPC)) 100 % of control; (dose: 25.0 mg/kg/injection, schedule: Q01DX001 (ip), vehicle: Klucel (hydroxypropylcellulose) (HPC)) 101 % of control; (dose: 50.0 mg/kg/injection, schedule: Q01DX001 (ip), vehicle: Klucel (hydroxypropylcellulose) (HPC)) 88 % of control.
`O=[N+]([O-])CC(OCCO)C(Cl)(Cl)Cl` (configuration not stated): the T/C by setting is: (dose: 3.12 mg/kg/injection, schedule: Q04DX003 (ip), vehicle: saline) 95 % of control; (dose: 6.25 mg/kg/injection, schedule: Q01DX009 (ip), vehicle: acetone) 110 % of control; under setting [1], 100 % of control; (dose: 12.5 mg/kg/injection, schedule: Q01DX009 (ip), vehicle: acetone) 89 % of control; under setting [2], 95 % of control; (dose: 18.0 mg/kg/injection, schedule: Q04DX003 (ip), vehicle: saline with Tween-80) 118 % of control. In addition, the T/C is 90 % of control (dose: 28.0 mg/kg/injection, schedule: Q04DX003 (ip), vehicle: saline with Tween-80) and 86 % of control (dose: 40.0 mg/kg/injection, schedule: Q04DX003 (ip), vehicle: saline with Tween-80).
As for `c1ccc(C[n+]2cccc3ccccc32)cc1`, the T/C is, setting by setting: (dose: 6.25 mg/kg/injection, schedule: Q01DX009 (ip), vehicle: Klucel (hydroxypropylcellulose) (HPC)) 109 % of control; under setting [1], 100 % of control; (dose: 12.5 mg/kg/injection, schedule: Q01DX009 (ip), vehicle: Klucel (hydroxypropylcellulose) (HPC)) 90 % of control; under setting [2], 100 % of control; (dose: 25.0 mg/kg/injection, schedule: Q01DX009 (ip), vehicle: Klucel (hydroxypropylcellulose) (HPC)) 90 % of control; under setting [3], 104 % of control.
With `FC(F)(F)c1ccc2c(c1)N(CCCN1CCN(CCN3CCCCC3)CC1)c1ccccc1S2`, the T/C is 118 % of control under setting [4]; 115 % of control (dose: 25.0 mg/kg/injection, schedule: Q01DX009 (ip), vehicle: saline); 86 % of control (dose: 50.0 mg/kg/injection, schedule: Q01DX009 (ip), vehicle: saline).
`Cc1cccn2c(CCc3nnc4c(C)cccn34)nnc12`: the T/C was 97 % of control under setting [5], 93 % of control under setting [6] and 89 % of control under setting [7].
As for `NC(C(=O)O)C(O)c1cnc[nH]1` (configuration not stated), the T/C is, setting by setting: (dose: 25.0 mg/kg/injection, schedule: Q01DX009 (ip), vehicle: water) 101 % of control; (dose: 50.0 mg/kg/injection, schedule: Q01DX009 (ip), vehicle: water) 96 % of control; (dose: 100.0 mg/kg/injection, schedule: Q01DX009 (ip), vehicle: water) 97 % of control; (dose: 200.0 mg/kg/injection, schedule: Q01DX009 (ip), vehicle: water) 93 % of control; (dose: 400.0 mg/kg/injection, schedule: Q01DX009 (ip), vehicle: water) 97 % of control.
With `COc1ccc(C(C)=O)cc1CO/N=C1\CSCc2ccccc21`, the T/C under setting [5] is 101 % of control, the T/C under setting [6] was 119 % of control and the T/C under setting [7] is 108 % of control.
On to `CN(C)c1cc(F)c(C=O)cc1[N+](=O)[O-]`, for which the T/C was 95 % of control under setting [8]; 100 % of control (dose: 200.0 mg/kg/injection, schedule: Q04DX003 (ip), vehicle: saline); 104 % of control (dose: 400.0 mg/kg/injection, schedule: Q04DX003 (ip), vehicle: saline).
On to `Cc1ccc(NS(=O)(=O)c2ccc([N+](=O)[O-])cc2)c(C)c1`, for which the T/C under setting [9] was 100 % of control, the T/C under setting [10] was 104 % of control and the T/C under setting [11] is 104 % of control.
In the case of `CC1(C2CC2)NC(=O)NC1=O` (configuration not stated), the T/C reads like this: (dose: 75.0 mg/kg/injection, schedule: Q01DX009 (ip), vehicle: saline) 113 % of control; (dose: 100.0 mg/kg/injection, schedule: Q01DX001 (ip), vehicle: saline) 113 % of control; (dose: 150.0 mg/kg/injection, schedule: Q01DX009 (ip), vehicle: saline) 104 % of control; (dose: 200.0 mg/kg/injection, schedule: Q01DX001 (ip), vehicle: saline) 104 % of control; (dose: 300.0 mg/kg/injection, schedule: Q01DX009 (ip), vehicle: saline) 100 % of control; (dose: 400.0 mg/kg/injection, schedule: Q01DX001 (ip), vehicle: saline) 104 % of control.
Consider `CN(C)c1oc2ccc3ccccc3c2c(=O)c1C#N`, for which the T/C is, setting by setting: under setting [5], 95 % of control; under setting [6], 97 % of control; under setting [7], 92 % of control.
On to `C(=N/Nc1ccccn1)/c1cccnc1`, for which the T/C was 100 % of control (dose: 25.0 mg/kg/injection, schedule: Q01DX001 (ip), vehicle: saline with Tween-80); 98 % of control (dose: 50.0 mg/kg/injection, schedule: Q01DX001 (ip), vehicle: saline with Tween-80); 100 % of control (dose: 100.0 mg/kg/injection, schedule: Q01DX001 (ip), vehicle: saline with Tween-80).
Regarding `Cc1c2c(ccc3ccccc32)c[n+]2ccccc12`, the T/C runs as follows: (dose: 6.25 mg/kg/injection, schedule: Q01DX009 (ip), vehicle: saline) 105 % of control; under setting [4], 122 % of control; under setting [2], 118 % of control; under setting [3], 122 % of control.
For `O=N[O-].[Co].[NH2-].[NH2-].[NH2-].[NH2-].[NH2-]`, the T/C reads like this: under setting [2], 95 % of control; under setting [3], 100 % of control; under setting [12], 100 % of control.
For the compound `CCOc1ccc(/C=N/Nc2ccc([N+](=O)[O-])cc2)cc1OC`, the T/C runs as follows: under setting [6], 100 % of control; under setting [7], 115 % of control; under setting [13], 115 % of control.
Take `O=c1cc2cccccc-2cc1O`: the T/C is 104 % of control (dose: 10.0 mg/kg/injection, schedule: Q01DX009 (ip), vehicle: saline with Tween-80); 113 % of control (dose: 20.0 mg/kg/injection, schedule: Q01DX009 (ip), vehicle: saline with Tween-80); 113 % of control (dose: 40.0 mg/kg/injection, schedule: Q01DX009 (ip), vehicle: saline with Tween-80).
As for `Cc1c2cnccc2c(C)c2c1c1ccccc1n2CC1CO1` (configuration not stated), the T/C is, setting by setting: (dose: 9.37 mg/kg/injection, schedule: Q01DX009 (ip), vehicle: Klucel (hydroxypropylcellulose) (HPC)) 150 % of control; (dose: 11.0 mg/kg/injection, schedule: Q01DX009 (ip), vehicle: saline with Tween-80) 168 % of control; (dose: 16.5 mg/kg/injection, schedule: Q01DX009 (ip), vehicle: saline with Tween-80) 176 % of control; under setting [14], 106 % of control; (dose: 37.5 mg/kg/injection, schedule: Q01DX009 (ip), vehicle: saline with Tween-80) 95 % of control.
On to `Cc1cccnc1N1CCNC1=O`, for which the T/C is, setting by setting: under setting [3], 90 % of control; under setting [12], 90 % of control; under setting [8], 100 % of control.
As for `NC1=NC(=O)NC1(c1ccccc1)c1ccccc1`, the T/C runs as follows: under setting [5], 107 % of control; under setting [6], 91 % of control; under setting [7], 90 % of control; under setting [13], 94 % of control.
With `C=C(Cl)COC1CCS(=O)(=O)C1` (configuration not stated), the T/C by setting is: (dose: 6.25 mg/kg/injection, schedule: Q01DX009 (ip), vehicle: saline with Tween-80) 90 % of control; (dose: 12.5 mg/kg/injection, schedule: Q01DX009 (ip), vehicle: saline with Tween-80) 90 % of control; under setting [14], 93 % of control.
Take `CS(=O)CC(O)(c1ccccc1)c1cccnc1` (configuration not stated): the T/C by setting is: under setting [5], 103 % of control; under setting [6], 92 % of control; under setting [7], 107 % of control.
Consider `O=c1[nH]c2ccc(I)cc2c(=O)o1`, for which the T/C is 109 % of control under setting [9], 104 % of control under setting [10] and 109 % of control under setting [11].
Regarding `CCOC(=O)C1Cc2ccccc2OC1=O` (configuration not stated), the T/C is 105 % of control (dose: 50.0 mg/kg/injection, schedule: Q01DX005 (ip), vehicle: saline with Tween-80); 100 % of control (dose: 100.0 mg/kg/injection, schedule: Q01DX005 (ip), vehicle: saline with Tween-80); 91 % of control (dose: 200.0 mg/kg/injection, schedule: Q01DX005 (ip), vehicle: saline with Tween-80).
